# Values quoted from earlier work in patent publication US8569328B1, “Compositions and methods comprising tilidine or related compounds and dextromethorphan” (Antecip Bioventures II LLC, priority 2011, dated 2013).
# Experiments:
# [1] = target: cytochrome P450 isozyme CYP2D6 (Homo sapiens, UniProt P10635); conditions: in vitro
# [2] = three large multicenter randomized studies; dextromethorphan added to morphine
# Chain of cytochrome P450 isozyme CYP2D6 (P10635 whole entry): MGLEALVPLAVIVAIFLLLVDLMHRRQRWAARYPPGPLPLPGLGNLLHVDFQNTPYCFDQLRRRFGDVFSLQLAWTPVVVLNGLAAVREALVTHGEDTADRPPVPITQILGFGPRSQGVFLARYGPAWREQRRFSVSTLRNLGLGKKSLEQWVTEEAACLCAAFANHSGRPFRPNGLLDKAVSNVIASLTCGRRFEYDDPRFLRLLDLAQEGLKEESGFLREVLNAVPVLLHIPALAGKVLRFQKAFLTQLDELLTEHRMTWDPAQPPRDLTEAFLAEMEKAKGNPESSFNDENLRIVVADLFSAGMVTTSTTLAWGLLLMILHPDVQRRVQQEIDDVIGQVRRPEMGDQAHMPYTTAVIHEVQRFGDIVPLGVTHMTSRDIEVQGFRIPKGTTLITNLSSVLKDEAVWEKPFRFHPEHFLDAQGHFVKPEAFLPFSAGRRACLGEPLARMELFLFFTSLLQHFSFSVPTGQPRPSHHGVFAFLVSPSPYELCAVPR
Molecule,inhibition of cytochrome P450 isozymes including CYP2D6 [1],benefit from the addition of dextromethorphan to morphine (enhancement of opioid analgesia) [2]
nortilidine,inhibit,–
CCOC(=O)C1(c2ccccc2)CCC=CC1N(C)C (stereo not drawn) [tilidine],inhibit,–
COc1ccc2c(c1)[C@]13CCCC[C@@H]1[C@H](C2)N(C)CC3 [dextromethorphan],–,failed to show any benefit
